# According to US20170368182A1, “Pharmaceutical Semi-Solid Gels with Entrapped Calcium Phosphate Nanoparticles” (Belmont University, priority 2014, published 2017):
# Structures can show the parent of a compound that is named as a salt. Where two headings read alike, the source gives them in different places.
# Assays:
# [1] = low viscosity ophthalmic solutions; cited from earlier work
# [2] = Osmolality contribution of gel components; assay type: physicochemical; conditions: 0.68% timolol maleate; 0.5% carbomer 980 calculated from 0.3% carbomer 934
# Procedure: The exact osmolality 0.5% carbomer 980 gel was not known, but it was calculated using the osmolality of 0.3% carbomer 934.^19 The 0.68% timolol maleate contributes 31.4 mOsm and the carbomer contributes approximately 42 mOsm. To make the gel isotonic, 4.1 g of 5% dextrose would need to be added to obtain an isotonic gel with a tonicity of 300 mOsm. However, the results of this experiment will be compared to the results of a similar experiment using carboxymethylcellulose, CMC. […] The gel was thoroughly mixed by hand and then with a stir bar and magnetic stirrer to ensure uniformity.
# Also, to make the concentrated 9% of the polymer to create enough for 3 gels, 9 g of the polymer was added to a 250 ml beaker. The polymer was hydrated with distilled water to 180 ml which took 1 hour to dissolve through the use of magnetic stirrer and stirring by hand. Next, 0.68 g of timolol maleate salt was added to the beaker with 60 ml of Na CMC. The contents were then q.s to a final concentration of 100 ml. […] Timolol maleate has osmolality of 31 mOsm and Na CMC has a theoretical osmolality of 470 mOsm which mitigated the need to add dextrose to reach osmolality.^18 The pH was assessed by using an electrode and the pH was between 7-8 which prevented the need to add sodium hydroxide to get to the physiological pH. […]
# [3] = Example 2; Na CMC value theoretical; cited from earlier work
# [4] = first seven years of use / commercial production of ophthalmic product, cited from earlier work
compound,measurement,setting,value
CC(C)(C)NC[C@H](O)COc1nsnc1N1CCOCC1 [Timolol maleate],share of Timolol that reaches intraocular tissues,[1],less than 5%
same,osmolality contribution,[2],31.4 mOsm
same,osmolality,[3],31 mOsm
same,deaths,[4],Thirty two
same,deaths,[4]; listed as timolol maleate,~37
